One compound from patent US11485714B2, “Hydroxyethylamine-based piperazine compounds, and methods of producing and using the same for treating disease” (National Institute of Immunology, priority 2020, dated 2022) can be followed below.

Data set [1] has as its system peripheral blood mononuclear cells (PBMCs). In words: In vitro cytotoxicity, PBMC (MTT, Cell Titer Glo). Format: cell-based, human. On the procedure:
(§1) [6] PBMC were isolated from healthy donors using the Ficoll-Paque™ technique (GE Healthcare Bioscience AB, Uppsala, Sweden) from donor leukopack samples obtained from LUMC blood bank services. […] Robust cells at a concentration of 80,000 cells/ml were plated into 96-well plates and incubated for 24 hours. Cell viability and proliferation was determined by use of both MTT and Cell Titer Glo@ assays for both cell types. MTT assay was conducted by addition of 10 μL MTT solution (5 mg/mL) into each well, incubated for 4 hour at 37° C. followed by addition of 50 μL DMSO to dissolve the formazan precipitate according to the manufacturer's protocol. Aliquots were drawn from each well and color intensity was measured spectrophotometrically in SpectraMax® M5 Multi-Mode Microplate Reader.
(§2) The cytotoxicity of Compound I was tested by exposing peripheral blood mononuclear cells (PBMCs) to drug concentrations corresponding to averages of both Pf3D7 and PfDd2 IC50 values. This was intended to establish whether the observed antiparasitic effects of the compounds were due to non-specific inhibitory activity. […] The IC50 required for killing the parasite is <90 nM. Therefore, in order to be toxic for human cells we have to use over 650 fold concentration.
Background: ATP-based viability assays read luminescence as a measure of living cells.

A short description of data set [2]: In vitro cytotoxicity, PBMC (MTT, Cell Titer Glo). Particulars: human; PBMCs; read-out: CC50 (50% cell toxicity). Format: cell-based, human. The procedure: as §1, §2
The test system of data set [3] is P. falciparum CQ-sensitive (Pf3D7). In words: SYBR Green I assay, asynchronous cultures, CQ-sensitive clone. The note with it: Plasmodium falciparum. The data set is classed as cell-based. On the procedure: Initially, antimalarial activity of Compound I was assessed on asynchronous cultures of P. falciparum sensitive (Pf3D7) clone using the SYBR Green assay. […] DMSO was used as a vehicle control, CQ (Chloroquine), DOX (Doxycycline) and DHA (Dihydroartemisinin).

Data set [4] can be described thus: In vitro cytotoxicity, HEK293 (Alamar Blue). Format: cell-based. The note with it: human, HEK293 cells; read-out: CC50 (50% cell toxicity). On the procedure:
In addition, the cell viability of Huh 7 and HEK293 cells was evaluated post drug exposure using the Alamar Blue assay [Riss, Terry L., et al. “Cell viability assays.” Assay Guidance Manual [Intenet]. Eli Lilly & Company and the National Centre for Advancing Translational Sciences, 2016]. Cells ([…]) were exposed to varying concentrations of test compounds, for 24 hours in 96-well plate format along with 10/100 μL Alamar Blue solution (10×=4.8 mM in phosphate buffer) per well. […] Results from the cytotoxicity assays were expressed as CC50 at which 50% of the cells died/metabolically slowed down due to drug exposure compared to the non-treated and vehicular control.
as §2
On the technique in general: Resazurin is reduced to fluorescent resorufin, in cell work by metabolically active cells.

Data set [5] has as its system P. berghei sporozoites in HepG2 cells. As to the kind of experiment: Liver stage infection in HepG2 cells, qPCR of 18SrRNA. Format: cell-based, Plasmodium berghei. Particulars: for IC50: read-out: in-vitro liver stage IC50. From the text:
Liver stage infection in HepG2 cells: Salivary glands of Anopheles stephensi mosquitoes infected with green fluorescent protein (GFP)-expressing P. berghei ANKA (Insectary at National Institute of Immunology, New Delhi, India) were dissected out. Sporozoites were perched in complete medium (Dulbecco's Modified Eagle Medium (DMEM)) with 10% fetal bovine serum (FBS), 3% penicillin-streptomycin (P/S)), and allowed to infect HepG2 cells. The cells were already treated with Calxinin at various concentrations (0.1 μM, 1 μM and 10 μM). The plate was centrifuged at 3000 rpm for 5 minutes to ensure the sporozoites settled down in the plate, and then placed in the incubation at 37° C. for 3 hours. Afterwards, media was replaced with pre-warmed medium (DMEM, 10% FBS, 3% P/S, and 0.1% Fungizone) supplemented with dimethyl sulfoxide (DMSO), and Calxinin at indicated concentrations. After two days, the cells were treated with Trizol and […] at −80° C. RNA isolation followed by reverse transcription polymerase chain reaction (RTPCR) was done to estimate the parasite load in the infected cells.
Compound I was tested in vitro against Plasmodium liver stage parasites. HepG2 cells, a human hepatocyte cell line, were infected with Plasmodium berghie sporozoites (mosquito infective forms of malaria). One set of cells was treated with 0.4, 2.0 and 10.0 micromolar concentration of inhibitor Compound I, and the other set was left untreated. Sporozoite infection time was considered as zero time. Twenty-four hours after infection the culture media was refreshed and the inhibitors were replenished. After forty-eight hours, total cells were harvested and total RNA was extracted by the Trizol™ method. RNA was converted into cDNA and realtime PCR was performed using the parasite 18SrRNA primers. This determined the liver stage parasite burden, which was then converted into percent inhibition by comparing with the untreated set.
Liver schizont stages are the first stage of human infection after injection of sporozoites by mosquitoes. The activity of compounds against this stage offers the important part of the antimalarial therapy, chemoprotection. To evaluate the efficacy of Compound I against liver stage parasites, HepG2 cells were infected with P. berghei sporozoites, in triplicates, and dosed with 0.1, 1, 10 μM of Compound I dissolved in 1% DMSO. The parasite load was quantified in control and Compound I-treated cells by quantitative PCR (qPCR) using parasite specific 18SrRNA primers. […] Inhibitory effect decreases up to 61% while treating cells with 10 μM due to precipitation of compound at higher concentration (FIG. 3). […] The liver stage activity of Compound I is much higher over the current treatments, atovaquone (ATQ) in culture.
For orientation: Real-time PCR tracks product formation cycle by cycle.

Data set [6] has as its system P. berghei ookinete (Pb-GFPcon). In words: In vitro ookinete inhibition assay. The data set is classed as cell-based, Plasmodium berghei. On the procedure:
[3] In vitro Ookinete inhibition assay of Calxinin. To determine whether Compound I (Calxinin) is blocking the growth of the transmission stage of malaria GFP-expressing P. berghei ANKA constitutively (Pb-GFPcon), which expresses the GFP during all the developmental stages, was used during in vitro experiments. Compound I (Calxinin) was tested in nanomolar range for its ability to inhibit ookinete development. Early gametocyte stage was maintained in vitro by incubating in ookinete media containing Xanthrunic acid and various other nutrients (complete DMEM) and pH 8.0. For the inhibition assay, culture plates containing Calxinin at different concentrations were incubated for about 24 h at 19° C. on a shaker and in the dark. After 24 h, ookinete development was checked by generating blood smears from the cultures. Smears were fixed, stained with Giemsa and counted in a NIKON 80i microscope.
Example 13—In-vitro Ookinete inhibition assay Encouraged with notable potency against symptomatic asexual blood stage, liver stage, and gametocidal activity, transmission blocking efficacy of Compound I (Calxinin) was evaluated against ookinete. […] As the concentration of Compound I increases, the percentage of healthy parasite is reduced and the % of deformed parasite increases (FIG. 7B).

Read-outs that look alike come from different tables or passages of the source. Some results are limits rather than exact numbers.

As to `NC(Cc1ccccc1)C(O)CN1CCN(Cc2ccc(C(F)(F)F)cc2)CC1` (centres unmarked) [Compound I], the “% PBMC viability relative to vehicle control” value in data set [1] (24 hours) is reported as greater than 100%. Moreover, the “proliferation of the PBMCs (PBMC)” value in data set [1] (concentration = average of Pf3D7 and PfDd2 IC50, Cell Titer-GLO) was 110.12. Also, the CC50 – broadly, the concentration that lowers cell viability or growth by half – at 24 h in data set [2] is 1000 µM; in data set [4] it was 60.2 µM. Also, the IC50 (in general, the concentration at which inhibition is half-maximal) in data set [3] (3D7, read-out: IC50 against asexual stages, drug sensitive (CQ-sensitive) 3D7, text) was 88 nM; in data set [3] (72 h, read-out: Pf3D7 IC50, nM (±SD), asynchronous cultures, 37° C., 72 hours, SYBR Green I), 90 nM; in data set [3] (strain not specified, read-out: IC50 required for killing the parasite), less than 90 nM; in data set [5] (Plasmodium berghei, HepG2) it was 0.079 µM; in data set [5] (listed as Calxinin), 0.065 µM; in data set [6] (Plasmodium berghei, 24 h, 19° C.), roughly 0.15 µM. Moreover, the inhibition (as a rule, the percentage by which the read-out fell short of the control) at 0.1 µM in data set [5] (Plasmodium berghei, HepG2, 0.1 μM, read-out: inhibition of liver stage parasite load) is roughly 60%. The inhibition at 1 µM in data set [5] (Plasmodium berghei, HepG2, 1 μM, read-out: inhibition of liver stage parasite load) was roughly 88%. In data set [5] (Plasmodium berghei, HepG2, 10 μM, precipitation of compound, read-out: inhibition of liver stage parasite load), the inhibition at 10 µM is no more than 61%. For the same compound, in data set [6] (450 nanomolar), the ookinete morphology entry was “deformed and retarded Ookinete”.
